Patent US12103916B2, “Antifungal compounds” (University of Kentucky Research Foundation, priority 2016, dated 2024)
Where two headings read alike, the source gives them in different places. Marks after values point to notes of the source that are not given here.

What was measured:
[1] = test system: C. albicans ATCC 90819(R); details: Table 1; strain D; control azoles; previously reported (refs 5, 16); cited from earlier work
[2] = test system: Aspergillus nidulans ATCC 38163; experiment: MIC determination, strain L; assay type: cell-based
Source text: (§1) For all of our azole derivatives we report their MIC-0 values against C. albicans ATCC 10231 (strain A) and all Aspergillus strains (K-M), which correspond to complete growth inhibition of these fungi. […] The MIC values presented for these five control drugs were either tested herein or correspond to our previously published data^5, 16 as indicated in Table 1.
(§2) Antifungal activity in the absence or presence of serum.
(§3) It is important to note that all comparisons to follow will be done by using the MIC values reported in μg/mL as the data were collected that way. However, we also present in parentheses in Table 2 the corresponding values in micromolar.
(§4) In this manuscript, we performed all activity comparisons by using the MIC values reported in μg/mL (Note: the corresponding MIC values are also provided in μM into parentheses in Tables 1, 2, S1, and S2).

Candida krusei ATCC 6258 = details: Table 1; strain I; control azoles; previously reported (refs 5, 16); cited from earlier work
[3] = test system: C. albicans ATCC MYA-1003(R); experiment: MIC determination, strain G; assay type: cell-based, Candida albicans; details: Candida albicans
Source text: as §1, §2, §3, §4

[4] = test system: Aspergillus nidulans ATCC 38163; details: Table 1; strain L; control azoles; previously reported (refs 5, 16); cited from earlier work
[5] = test system: C. glabrata ATCC 2001 (strain H); experiment: Time-kill assay, strain H; assay type: cell-based, Candida glabrata; details: Ex.2 series, compound at 4×MIC, VOR control
Experimental: FIG. 9A-9D include Representative time-kill curves for compound 20 against FIG. 9A. C. albicans ATCC 10231 (strain A) and FIG. 9B. C. parapsilosis ATCC 22019 (strain J), as well as for compound 22 against FIG. 9C. C. glabrata ATCC 2001 (strain H), and FIG. 9D. strain J. Fungal strains were treated with no drug (black circles), 1×MIC (white circles), 4×MIC (inverted black triangles), or 8×MIC (white triangles) of compounds 20 or 22, or with 1×MIC (black squares) or 4×MIC (white squares) of VOR. The detection limit of this assay was 100 CFU/mL (represented by the red line in panels A and C).
Time-kill assays. To determine if the antifungal activity of the alkylated piperazine-azole hybrids is fungistatic or fungicidal, we performed time-kill assays over 24-hour periods by using compounds 20 and 22, each against two fungal strains (strains A and J for 20; H and J for 22) (FIG. 9).

[6] = test system: C. albicans ATCC 90819(R); experiment: MIC determination, strain D; assay type: cell-based, Candida albicans; details: Candida albicans, ATCC90819
Experimental: The antifungal activity of our new azole compounds 1-9 and 24-41 was first evaluated against a panel of seven Candida albicans strains (A-G), three non-albicans Candida strains […], and three Aspergillus strains (K-M) in a concentration range of 0.03-31.2 μg/mL (Table 1). […] For all of our azole derivatives we report their MIC-0 values against C. albicans ATCC 10231 (strain A) and all Aspergillus strains (K-M), which correspond to complete growth inhibition of these fungi. […] The commercially available antifungals AmB, FLC, ITC, POS, and VOR were used as reference drugs for comparison. The MIC values presented for these five control drugs were either tested herein or correspond to our previously published data^5, 16 as indicated in Table 1.
Antifungal activity in the absence or presence of serum. The antifungal activity of the newly prepared alkylated piperazine/morpholine-azole hybrids 16-28, of intermediate 14 that we used to verify that only final compounds exert antifungal activity, as well as that of alkylated piperazine/morpholine derivatives 1-10 were first evaluated against a panel of seven C. albicans (ATCC 10231 (A), ATCC 64124(R) (B), ATCC MYA-2876(S) (C), ATCC 90819(R) (D), ATCC MYA-2310(S) (E), ATCC MYA-1237(R) (F), and ATCC MYA-1003(R) (G)), three non-albicans Candida (C. glabrata ATCC 2001 (H), C. krusei ATCC 6258 (I), and C. parapsilosis ATCC 22019 (J)), and three Aspergillus (A. flavus ATCC MYA-3631 (K), A. nidulans ATCC 38163 (L), and A. terreus ATCC MYA-3633 (M)) strains using a concentration range of 0.03-31.3 μg/mL (Table 2).
as §3, with “Commercially available antifungal agents such as AmB, CAS, FLC, and VOR were used as positive controls for comparison. […] It” for “It”
We used the commercially available antifungal agents such as AmB, caspofungin (CAS), FLC, and VOR as positive controls for comparison. For derivatives 5-16 as well as the reference drugs AmB and CAS, we reported MIC-0 values, which correspond to no visible growth. […] In this manuscript, we performed all activity comparisons by using the MIC values reported in μg/mL (Note: the corresponding MIC values are also provided in μM into parentheses in Tables 1, 2, S1, and S2).

[7] = read-out: MIC (MIC-2), in parentheses

SMILES: C[C@@H](c1ncncc1F)[C@](O)(Cn1cncn1)c1ccc(F)cc1F [VOR, voriconazole]
- MIC (MIC-2) [1]: 1.95^c μg/mL
- MIC ([2]; ATCC38163, Table 2, strain L, all compounds and controls, read-out: MIC (MIC-0)): 0.12 µg/mL
- MIC ([2]; ATCC38163, Table 2, strain L, all compounds and controls, read-out: MIC (MIC-0), in parentheses): 0.34 µM
- MIC ([2]; ATCC38163, Table 3, Ex.2 compounds, no FBS, read-out: MIC, Aspergillus nidulans ATCC 38163 (L) (no FBS)): 0.12 µg/mL
- MIC ([2]; ATCC38163, read-out: MIC, Aspergillus nidulans ATCC 38163 (L) (+10% FBS), Table 3, Ex.2 compounds, +10% FBS): 0.12 µg/mL
- MIC (MIC-2) (Candida krusei ATCC 6258): 0.12^c μg/mL
- MIC ([3]; read-out: MIC (MIC-2)): 1.95 µg/mL
- MIC [3, 7]: 5.6 µM
- MIC (MIC-2) [4]: 0.03^c μg/mL
- effect in time-kill assay [5]: fungistatic
- MIC ([6]; read-out: MIC (MIC-2)): 1.95 µg/mL
- MIC [6, 7]: 5.6 µM
